Source: ChEMBL document CHEMBL4334516, “Kinase Chemodiversity from the Arctic: The Breitfussins” (J Med Chem, 2019)

Columns and labels:
MCF7 = experiment: Cytotoxicity in human MCF7 cells assessed as reduction in cell viability incubated for 72 hrs by MTS assay; format: functional, cell-based; conditions: MCF7, 72 h
[1] = biological target: Mitogen-activated protein kinase kinase kinase 11 (Homo sapiens, UniProt Q16584); experiment: Inhibition of MLK3 (unknown origin) by [33P]-ATP filter binding kinase assay
[2] = biological target: Serine/threonine-protein kinase SIK3 (Homo sapiens, UniProt Q9Y2K2); experiment: Inhibition of SIK3 (unknown origin) by [33P]-ATP filter binding kinase assay
HT-29 = experiment: Cytotoxicity in human HT-29 cells assessed as reduction in cell viability incubated for 72 hrs by MTS assay; format: functional, cell-based; conditions: HT-29, 72 h
SK-BR-3 = experiment: Cytotoxicity in human SK-BR-3 cells assessed as reduction in cell viability incubated for 72 hrs by MTS assay; format: functional, cell-based; conditions: SK-BR-3, 72 h
[3] = biological target: Serine/threonine-protein kinase pim-2 (Homo sapiens, UniProt Q9P1W9); experiment: Inhibition of PIM2 (unknown origin) by [33P]-ATP filter binding kinase assay
[4] = biological target: Dual specificity tyrosine-phosphorylation-regulated kinase 1A (Homo sapiens, UniProt Q13627); experiment: Inhibition of DYRK1A (unknown origin) by [33P]-ATP filter binding kinase assay
[5] = biological target: T1, Mitogen-activated protein kinase 15 (Homo sapiens, UniProt Q8TD08); experiment: Inhibition of ERK8 (unknown origin) by [33P]-ATP filter binding kinase assay
T1 sequence (Q8TD08 whole entry): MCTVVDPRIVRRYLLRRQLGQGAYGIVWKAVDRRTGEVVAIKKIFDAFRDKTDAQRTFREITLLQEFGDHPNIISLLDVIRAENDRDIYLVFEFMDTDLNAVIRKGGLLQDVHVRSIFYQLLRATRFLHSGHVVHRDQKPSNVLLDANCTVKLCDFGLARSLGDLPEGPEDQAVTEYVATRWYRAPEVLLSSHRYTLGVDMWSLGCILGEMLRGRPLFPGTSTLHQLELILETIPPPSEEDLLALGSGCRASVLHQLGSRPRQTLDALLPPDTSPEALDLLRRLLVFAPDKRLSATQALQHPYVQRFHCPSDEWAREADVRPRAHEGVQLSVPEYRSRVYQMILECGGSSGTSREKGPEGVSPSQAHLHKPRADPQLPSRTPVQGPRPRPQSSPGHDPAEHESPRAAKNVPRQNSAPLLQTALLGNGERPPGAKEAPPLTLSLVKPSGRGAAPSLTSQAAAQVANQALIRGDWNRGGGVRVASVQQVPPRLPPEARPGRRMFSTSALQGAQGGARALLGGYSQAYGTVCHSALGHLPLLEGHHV

MOLT-4 = experiment: Cytotoxicity in human MOLT4 cells assessed as reduction in cell viability incubated for 72 hrs by MTS assay; format: functional, cell-based; conditions: MOLT-4, 72 h
[6] = biological target: T2, Mitogen-activated protein kinase kinase kinase 7 (Homo sapiens, UniProt O43318); experiment: Inhibition of TAK1 (unknown origin) by [33P]-ATP filter binding kinase assay
T2 sequence (O43318 whole entry): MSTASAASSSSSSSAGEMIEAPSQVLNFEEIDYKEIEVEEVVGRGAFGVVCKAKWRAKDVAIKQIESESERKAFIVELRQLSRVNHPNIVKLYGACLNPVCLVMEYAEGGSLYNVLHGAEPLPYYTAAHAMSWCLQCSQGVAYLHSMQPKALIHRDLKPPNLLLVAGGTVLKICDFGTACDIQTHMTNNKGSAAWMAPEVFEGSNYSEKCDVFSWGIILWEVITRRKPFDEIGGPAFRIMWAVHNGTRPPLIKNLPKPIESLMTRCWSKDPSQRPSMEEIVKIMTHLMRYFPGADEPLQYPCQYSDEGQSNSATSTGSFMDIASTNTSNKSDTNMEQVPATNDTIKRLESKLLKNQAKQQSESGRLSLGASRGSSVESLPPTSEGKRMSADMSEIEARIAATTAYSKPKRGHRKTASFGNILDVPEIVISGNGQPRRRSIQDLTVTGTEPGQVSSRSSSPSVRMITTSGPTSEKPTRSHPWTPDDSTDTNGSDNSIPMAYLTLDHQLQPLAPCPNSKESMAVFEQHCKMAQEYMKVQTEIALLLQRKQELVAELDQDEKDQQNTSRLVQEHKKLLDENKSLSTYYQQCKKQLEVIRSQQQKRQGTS

[7] = biological target: Serine/threonine-protein kinase pim-1 (Homo sapiens, UniProt P11309); experiment: Inhibition of PIM1 (unknown origin) by [33P]-ATP filter binding kinase assay
MDA-MB-468 = experiment: Cytotoxicity in human MDA-MB-468 cells assessed as reduction in cell viability incubated for 72 hrs by MTS assay; format: functional, cell-based; conditions: MDA-MB-468, 72 h
[8] = biological target: Receptor-interacting serine/threonine-protein kinase 2 (Homo sapiens, UniProt O43353); experiment: Inhibition of RIPK2 (unknown origin) by [33P]-ATP filter binding kinase assay
MRC5 = experiment: Cytotoxicity in human MRC5 cells assessed as reduction in cell viability incubated for 72 hrs by MTS assay; format: cell-based; conditions: MRC5, 72 h
Aurora kinase A = biological target: T3, Aurora kinase A (Homo sapiens, UniProt O14965); experiment: Inhibition of Aurora A (unknown origin) by [33P]-ATP filter binding kinase assay
T3 sequence (O14965 whole entry): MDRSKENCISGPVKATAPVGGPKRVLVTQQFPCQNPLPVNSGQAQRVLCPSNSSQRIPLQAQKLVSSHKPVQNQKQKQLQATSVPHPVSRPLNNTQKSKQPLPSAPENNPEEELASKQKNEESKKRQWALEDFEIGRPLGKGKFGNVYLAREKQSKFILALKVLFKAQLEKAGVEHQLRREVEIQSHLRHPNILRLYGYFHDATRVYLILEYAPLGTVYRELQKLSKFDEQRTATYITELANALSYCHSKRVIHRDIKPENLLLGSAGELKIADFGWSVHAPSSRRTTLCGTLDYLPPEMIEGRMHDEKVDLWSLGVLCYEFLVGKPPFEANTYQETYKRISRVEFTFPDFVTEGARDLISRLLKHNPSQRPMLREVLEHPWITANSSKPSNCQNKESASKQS

MV4-11 = experiment: Cytotoxicity in human MV4-11 cells assessed as reduction in cell viability incubated for 72 hrs by MTS assay; format: functional, cell-based; conditions: MV4-11, 72 h
Aurora kinase B = Aurora kinase B (Homo sapiens, UniProt Q96GD4); experiment: Inhibition of Aurora B (unknown origin) by [33P]-ATP filter binding kinase assay
A2058 = experiment: Cytotoxicity in human A2058 cells assessed as reduction in cell viability incubated for 72 hrs by MTS assay; format: functional, cell-based; conditions: A2058, 72 h
[9] = biological target: Serine/threonine-protein kinase pim-3 (Homo sapiens, UniProt Q86V86); experiment: Inhibition of PIM3 (unknown origin) by [33P]-ATP filter binding kinase assay
[10] = biological target: T4, Mitogen-activated protein kinase kinase kinase kinase 2 (Homo sapiens, UniProt Q12851); experiment: Inhibition of GCK (unknown origin) by [33P]-ATP filter binding kinase assay
T4 sequence (Q12851 whole entry): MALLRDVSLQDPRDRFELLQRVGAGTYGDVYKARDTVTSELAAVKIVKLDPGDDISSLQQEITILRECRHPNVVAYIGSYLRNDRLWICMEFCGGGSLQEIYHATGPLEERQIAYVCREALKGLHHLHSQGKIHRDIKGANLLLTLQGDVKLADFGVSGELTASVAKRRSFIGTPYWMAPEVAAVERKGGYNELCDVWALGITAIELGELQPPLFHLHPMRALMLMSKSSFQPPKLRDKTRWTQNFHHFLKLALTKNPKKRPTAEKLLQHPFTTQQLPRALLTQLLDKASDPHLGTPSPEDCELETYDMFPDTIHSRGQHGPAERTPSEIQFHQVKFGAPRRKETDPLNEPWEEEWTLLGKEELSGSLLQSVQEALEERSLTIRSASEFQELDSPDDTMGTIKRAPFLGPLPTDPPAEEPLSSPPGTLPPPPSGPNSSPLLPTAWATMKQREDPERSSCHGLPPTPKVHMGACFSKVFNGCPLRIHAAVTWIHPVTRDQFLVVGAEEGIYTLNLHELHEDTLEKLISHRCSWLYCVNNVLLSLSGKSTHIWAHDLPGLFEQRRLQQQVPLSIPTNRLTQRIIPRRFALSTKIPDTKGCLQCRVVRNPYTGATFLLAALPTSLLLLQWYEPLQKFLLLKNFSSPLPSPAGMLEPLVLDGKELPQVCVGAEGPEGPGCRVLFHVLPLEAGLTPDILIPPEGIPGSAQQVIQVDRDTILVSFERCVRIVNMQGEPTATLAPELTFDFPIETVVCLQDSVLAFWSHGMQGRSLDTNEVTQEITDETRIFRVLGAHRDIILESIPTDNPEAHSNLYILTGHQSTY

[11] = biological target: Mitogen-activated protein kinase kinase kinase 9 (Homo sapiens, UniProt P80192); experiment: Inhibition of MLK1 (unknown origin) by [33P]-ATP filter binding kinase assay
[12] = biological target: Cyclin-dependent kinase 9 (Homo sapiens, UniProt P50750); experiment: Inhibition of CDK9 (unknown origin)
Sequence of Cyclin-dependent kinase 9 (P50750 whole entry): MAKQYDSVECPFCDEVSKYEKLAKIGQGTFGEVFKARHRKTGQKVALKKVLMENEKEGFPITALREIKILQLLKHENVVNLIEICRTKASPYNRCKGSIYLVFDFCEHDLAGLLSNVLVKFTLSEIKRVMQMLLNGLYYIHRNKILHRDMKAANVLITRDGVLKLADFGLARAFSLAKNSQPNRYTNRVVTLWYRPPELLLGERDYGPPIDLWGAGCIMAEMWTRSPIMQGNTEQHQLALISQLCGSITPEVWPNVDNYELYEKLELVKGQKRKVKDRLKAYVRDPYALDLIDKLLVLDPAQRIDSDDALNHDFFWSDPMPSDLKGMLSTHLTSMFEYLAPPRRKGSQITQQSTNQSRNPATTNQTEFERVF

Sequence of Serine/threonine-protein kinase pim-1 (P11309 whole entry): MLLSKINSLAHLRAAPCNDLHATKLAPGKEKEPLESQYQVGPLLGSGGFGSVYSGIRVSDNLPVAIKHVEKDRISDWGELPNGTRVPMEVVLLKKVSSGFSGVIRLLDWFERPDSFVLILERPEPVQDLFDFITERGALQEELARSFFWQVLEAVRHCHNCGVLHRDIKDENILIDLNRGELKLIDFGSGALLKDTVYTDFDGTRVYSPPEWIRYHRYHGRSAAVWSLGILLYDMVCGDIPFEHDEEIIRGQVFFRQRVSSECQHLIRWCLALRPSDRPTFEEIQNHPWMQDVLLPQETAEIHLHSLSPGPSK
Sequence of Serine/threonine-protein kinase pim-2 (Q9P1W9 whole entry): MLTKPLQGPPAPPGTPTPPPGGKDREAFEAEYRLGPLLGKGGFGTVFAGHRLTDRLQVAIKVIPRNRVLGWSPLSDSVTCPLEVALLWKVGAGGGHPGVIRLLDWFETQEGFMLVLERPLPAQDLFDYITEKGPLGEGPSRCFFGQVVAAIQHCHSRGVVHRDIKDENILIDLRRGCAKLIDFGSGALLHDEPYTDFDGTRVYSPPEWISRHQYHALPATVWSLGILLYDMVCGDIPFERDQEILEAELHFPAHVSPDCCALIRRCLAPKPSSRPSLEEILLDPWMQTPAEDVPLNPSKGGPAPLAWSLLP
Sequence of Receptor-interacting serine/threonine-protein kinase 2 (O43353 whole entry): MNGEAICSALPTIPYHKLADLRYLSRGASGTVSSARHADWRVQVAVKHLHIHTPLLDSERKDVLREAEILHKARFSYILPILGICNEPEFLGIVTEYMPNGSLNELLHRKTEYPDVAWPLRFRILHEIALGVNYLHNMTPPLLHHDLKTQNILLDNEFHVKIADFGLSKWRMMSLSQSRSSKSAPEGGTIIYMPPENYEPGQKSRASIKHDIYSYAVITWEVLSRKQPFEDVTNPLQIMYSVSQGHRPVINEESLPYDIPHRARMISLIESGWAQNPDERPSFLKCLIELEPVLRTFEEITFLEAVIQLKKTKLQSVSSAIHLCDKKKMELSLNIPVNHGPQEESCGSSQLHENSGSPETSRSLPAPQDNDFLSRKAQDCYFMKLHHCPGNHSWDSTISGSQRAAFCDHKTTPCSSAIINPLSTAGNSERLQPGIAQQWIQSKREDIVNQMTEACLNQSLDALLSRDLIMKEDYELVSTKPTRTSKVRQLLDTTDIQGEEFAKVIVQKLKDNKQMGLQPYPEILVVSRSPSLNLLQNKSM
Sequence of Aurora kinase B (Q96GD4 whole entry): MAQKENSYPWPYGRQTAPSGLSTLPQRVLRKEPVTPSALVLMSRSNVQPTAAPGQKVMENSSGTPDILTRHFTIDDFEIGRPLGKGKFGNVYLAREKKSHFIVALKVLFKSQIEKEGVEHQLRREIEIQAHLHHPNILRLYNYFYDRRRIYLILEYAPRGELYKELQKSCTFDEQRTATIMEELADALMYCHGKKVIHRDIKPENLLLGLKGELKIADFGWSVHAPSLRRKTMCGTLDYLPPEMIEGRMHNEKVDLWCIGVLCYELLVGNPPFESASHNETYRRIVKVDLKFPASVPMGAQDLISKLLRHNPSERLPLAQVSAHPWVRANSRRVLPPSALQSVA
Sequence of Mitogen-activated protein kinase kinase kinase 11 (Q16584 whole entry): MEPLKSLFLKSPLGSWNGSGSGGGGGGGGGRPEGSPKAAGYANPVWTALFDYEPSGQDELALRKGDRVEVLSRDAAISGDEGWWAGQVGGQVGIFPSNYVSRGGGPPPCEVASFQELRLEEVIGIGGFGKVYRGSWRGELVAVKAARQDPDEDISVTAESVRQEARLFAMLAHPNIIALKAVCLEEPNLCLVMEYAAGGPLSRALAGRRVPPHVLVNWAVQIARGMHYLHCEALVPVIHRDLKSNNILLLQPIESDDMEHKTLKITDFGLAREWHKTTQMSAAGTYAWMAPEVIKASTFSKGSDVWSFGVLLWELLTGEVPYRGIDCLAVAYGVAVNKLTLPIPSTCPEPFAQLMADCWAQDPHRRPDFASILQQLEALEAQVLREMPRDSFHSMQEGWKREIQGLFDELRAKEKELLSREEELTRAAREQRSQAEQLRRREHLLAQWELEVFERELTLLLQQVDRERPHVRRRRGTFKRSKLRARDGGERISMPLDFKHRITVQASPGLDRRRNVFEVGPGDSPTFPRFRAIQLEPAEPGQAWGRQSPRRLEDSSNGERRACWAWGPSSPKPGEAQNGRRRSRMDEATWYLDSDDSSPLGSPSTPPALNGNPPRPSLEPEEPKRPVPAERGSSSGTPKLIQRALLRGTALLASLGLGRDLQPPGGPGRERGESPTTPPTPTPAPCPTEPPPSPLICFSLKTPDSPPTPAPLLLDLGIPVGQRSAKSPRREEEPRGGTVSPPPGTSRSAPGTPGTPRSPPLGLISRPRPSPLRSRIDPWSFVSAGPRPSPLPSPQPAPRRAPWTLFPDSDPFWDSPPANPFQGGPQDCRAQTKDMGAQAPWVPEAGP
Sequence of Mitogen-activated protein kinase kinase kinase 9 (P80192 whole entry): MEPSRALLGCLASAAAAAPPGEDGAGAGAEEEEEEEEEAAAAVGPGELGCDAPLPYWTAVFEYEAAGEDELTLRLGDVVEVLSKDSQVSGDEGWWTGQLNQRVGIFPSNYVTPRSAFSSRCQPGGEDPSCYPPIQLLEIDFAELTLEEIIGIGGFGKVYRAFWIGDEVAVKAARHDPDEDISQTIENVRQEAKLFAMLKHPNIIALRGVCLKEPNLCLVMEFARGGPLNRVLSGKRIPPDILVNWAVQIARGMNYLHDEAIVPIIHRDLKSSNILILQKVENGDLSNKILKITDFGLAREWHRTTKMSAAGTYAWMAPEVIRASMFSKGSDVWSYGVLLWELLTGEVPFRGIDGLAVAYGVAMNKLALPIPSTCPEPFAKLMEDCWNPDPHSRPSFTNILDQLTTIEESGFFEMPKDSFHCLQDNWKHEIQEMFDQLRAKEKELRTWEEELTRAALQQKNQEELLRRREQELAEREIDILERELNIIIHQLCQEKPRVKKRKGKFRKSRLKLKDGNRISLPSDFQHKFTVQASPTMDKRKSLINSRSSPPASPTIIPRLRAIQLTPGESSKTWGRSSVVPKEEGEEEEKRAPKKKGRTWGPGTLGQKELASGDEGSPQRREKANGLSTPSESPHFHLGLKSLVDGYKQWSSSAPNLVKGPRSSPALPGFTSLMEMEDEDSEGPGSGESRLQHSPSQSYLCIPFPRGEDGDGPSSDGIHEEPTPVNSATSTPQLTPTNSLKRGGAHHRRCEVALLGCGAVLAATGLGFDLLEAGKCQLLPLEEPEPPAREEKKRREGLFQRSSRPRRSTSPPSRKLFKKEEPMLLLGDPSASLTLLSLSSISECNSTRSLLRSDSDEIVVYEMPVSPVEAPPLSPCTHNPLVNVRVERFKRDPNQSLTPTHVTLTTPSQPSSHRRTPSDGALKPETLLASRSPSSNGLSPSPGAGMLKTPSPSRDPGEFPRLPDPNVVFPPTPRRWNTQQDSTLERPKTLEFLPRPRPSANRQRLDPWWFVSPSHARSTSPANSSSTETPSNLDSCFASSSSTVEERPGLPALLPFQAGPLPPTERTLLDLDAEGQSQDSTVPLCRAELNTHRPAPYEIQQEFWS

Row | IC50 [1] | IC50 [2] | IC50 [3] | IC50 [4] | IC50 [6] | IC50 [7] | IC50 [8] | IC50 (Aurora kinase A) | IC50 (Aurora kinase B) | IC50 [9] | IC50 [10] | SMILES | IC50 (MCF7) | IC50 (HT-29) | IC50 (SK-BR-3) | IC50 [5] | IC50 (MOLT-4) | IC50 (MDA-MB-468) | IC50 (MRC5) | IC50 (MV4-11) | IC50 (A2058) | also measured
1 | 19 µM | > 10 µM | > 10 µM | > 10 µM | 18 µM | 18 µM | > 10 µM | > 10 µM | 31 µM | > 10 µM | 40 µM | COc1cc(Br)cc2[nH]c(I)c(-c3cnc(-c4ccc[nH]4)o3)c12 | > 10 µM | > 10 µM | > 10 µM | > 10 µM | > 10 µM | > 10 µM | > 10 µM | > 10 µM | > 10 µM | IC50 [11]: 21 µM
2 | – | – | – | – | – | – | – | – | – | – | – | Cc1cc(=O)c2c(O)cc(O)c([C@@H]3CCN(C)C[C@@H]3O)c2o1 | – | – | – | – | – | – | – | – | – | IC50 [12]: 0.3 µM
3 | 23 µM | > 10 µM | > 10 µM | > 10 µM | 36 µM | 43 µM | > 10 µM | > 10 µM | 7.8 µM | > 10 µM | > 10 µM | COc1cc(Br)cc2[nH]cc(-c3cnc(-c4cc(Br)c[nH]4)o3)c12 | > 10 µM | > 10 µM | > 10 µM | > 10 µM | > 10 µM | > 10 µM | > 10 µM | > 10 µM | > 10 µM | IC50 [11]: 22 µM
